Data reported in paper PMC11938014, “Development and Application of Small Molecule–Peptide Conjugates as Cathepsin K-Specific Covalent Irreversible Inhibitors in Human Osteoclast and Lung Cancer” (JACS Au, 2025).
Read-outs that look alike come from different tables or passages of the source.

Columns and labels:
Assay in all cases: Recombinant cathepsin inhibition, gel-based competition with GB123 probe
Format in all cases: biochemical
[1] = target: T1, Recombinant human cathepsin B (Homo sapiens, UniProt P07858)
T1 construct: made in house
Protocol: (§1) In-gel fluorescence analysis was used to detect the residual activity of the cathepsins by applying pan-cathepsin probe GB123 to detect the stable enzyme–probe complex. This approach is used for testing inhibition and selectivity.[37],[41]
(§2) Recombinant human cathepsin L (0.5 μM), cathepsin B (0.5 μM), cathepsin K (0.5 μM), and cathepsin S (0.5 μM) were pretreated with different concentrations of inhibitors (GD compounds, odanacatib) for 1 h in reaction buffer (50 mM acetate, 2 mM dithiothreitol (DTT), and 5 mM MgCl2, pH 5.5) at 37 °C. GB123 (1 μM) was added and incubated with samples for 60 min at 37 °C.[37],[41] The reaction was stopped by the addition of sample buffer 4× (40% glycerol, 0.2 M Tris/HCl pH 6.8, 20% β-mercaptoethanol, 12% SDS, and 0.4 mg/mL bromophenol blue). Samples were then boiled, separated on a 12.5% SDS gel, and scanned for fluorescence by a Typhoon scanner FLA 9500 at excitation and emission wavelengths of 635 and 670 nm for GB123.
(§3) graphs were generated in GraphPad Prism software.

[2] = target: T2, Recombinant human cathepsin K (Homo sapiens, UniProt P43235); conditions: for loss of potency compared to GD20: diastereomers of GD20 with D amino acids
T2 construct: made in house
T2 sequence (P43235 115-329): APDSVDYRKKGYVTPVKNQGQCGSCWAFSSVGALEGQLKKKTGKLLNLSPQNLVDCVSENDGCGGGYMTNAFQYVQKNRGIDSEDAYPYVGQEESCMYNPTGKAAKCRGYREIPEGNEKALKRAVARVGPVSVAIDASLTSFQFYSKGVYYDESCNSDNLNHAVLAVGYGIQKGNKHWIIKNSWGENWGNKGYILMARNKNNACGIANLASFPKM
Protocol: as §1, §2, §3

[3] = target: T3, Recombinant human cathepsin L (Homo sapiens, UniProt P07711)
T3 construct: made in house
T3 sequence (P07711 114-333): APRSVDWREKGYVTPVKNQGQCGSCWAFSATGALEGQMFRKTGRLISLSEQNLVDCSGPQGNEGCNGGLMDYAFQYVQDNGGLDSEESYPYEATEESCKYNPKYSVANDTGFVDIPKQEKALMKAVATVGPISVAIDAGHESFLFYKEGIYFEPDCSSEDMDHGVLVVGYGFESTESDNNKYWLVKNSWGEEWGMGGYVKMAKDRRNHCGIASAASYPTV
Protocol: as §1, §2, §3

[4] = Table S2, three independent competition gel-based experiments, read-out: CTSB (IC50)
[5] = Table S2, three independent competition gel-based experiments, read-out: CTSK (IC50)
[6] = Table S2, three independent competition gel-based experiments, read-out: CTSL (IC50)

Row | IC50 [1, 4] | IC50 [2, 5] | IC50 [3, 6] | IC50 ([3]; Figure 1, gel-based GB123 competition, read-out: Activity [μM] CTSL (IC50)) | IC50 ([1]; Figure 1, gel-based GB123 competition, read-out: Activity [μM] CTSB (IC50)) | IC50 ([2]; Figure 1, gel-based GB123 competition, read-out: Activity [μM] CTSK (IC50)) | loss of potency compared to GD20 [2] | Compound
1 | 0.66 ± 0.02 µM | 0.65 ± 0.01 µM | 0.19 ± 0.1 µM |  |  |  |  | NCCCC[C@H](NC(=O)[C@H](Cc1ccccc1)NC(=O)OCc1ccccc1)C(=O)CSc1c(F)c(F)cc(F)c1F [GD10]
2 | 5.1 ± 0.55 µM | 0.5 ± 0.05 µM | > 5 µM |  |  |  |  | CC(C)C[C@H](N[C@@H](c1ccc(-c2ccc(S(C)(=O)=O)cc2)cc1)C(F)(F)F)C(=O)NCC(=O)CSc1c(F)c(F)cc(F)c1F [GD9]
3 | > 5 µM | 5.5 ± 1 µM | 2 ± 0.15 µM | > 5 µM |  |  |  | NCCCC[C@H](NC(=O)[C@@H]1CCCN1C(=O)CNC(=O)OCc1ccccc1)C(=O)CSc1c(F)c(F)cc(F)c1F [GD15]
4 | > 20 µM | > 20 µM | 4.4 ± 0.8 µM |  |  |  |  | C#CCNC(=O)[C@H](CC(C)C)N[C@@H](c1ccc(-c2ccc(S(=O)(=O)NC(=O)OC(C)(C)C)cc2)cc1)C(F)(F)F [GD33]
5 | 0.24 ± 0.1 µM | 0.9 ± 0.1 µM | > 20 µM |  |  |  |  | CC(C)C[C@H](N[C@@H](c1ccc(-c2ccc(S(=O)(=O)NC(=O)OC(C)(C)C)cc2)cc1)C(F)(F)F)C(=O)NCC(=O)COC(=O)[C@@H]1CCCN1C(=O)[C@H](CC(C)C)NC(=O)OCC1c2ccccc2-c2ccccc21 [GD31]
6 | 0.4 ± 0.06 µM | 4.4 ± 0.9 µM | 0.25 ± 0.04 µM |  |  |  |  | Cc1cccc(C)c1C(=O)OCC(=O)[C@H](CCCCN)NC(=O)[C@H](Cc1ccccc1)NC(=O)OCc1ccccc1 [GB111-NH2, reference compound]
7 | > 5 µM | > 5 µM | > 5 µM |  |  |  |  | CC(C)C[C@H](NC(=O)OCC1c2ccccc2-c2ccccc21)C(=O)N1CCC[C@H]1C(=O)OCC(=O)CNC(=O)[C@H](CC1CCCCC1)N[C@@H](c1ccc(-c2ccc(S(C)(=O)=O)cc2)cc1)C(F)(F)F [GD28]
8 | 4 ± 0.15 µM | 2.7 ± 0.35 µM | > 5 µM |  | 1.95 ± 0.35 µM | 3.6 ± 0.5 µM |  | Cc1cccc(C)c1C(=O)OCC(=O)[C@H](CCCCN)NC(=O)[C@@H]1CCCN1C(=O)CNC(=O)OCc1ccccc1 [GD13]
9 |  | 3.9 ± 0.7 µM |  |  |  |  | 4–9 times | CC(C)C[C@H](NC(=O)OCC1c2ccccc2-c2ccccc21)C(=O)N1CCC[C@H]1C(=O)OCC(=O)CNC(=O)[C@@H](CC(C)C)N[C@@H](c1ccc(-c2ccc(S(C)(=O)=O)cc2)cc1)C(F)(F)F [GD39]
10 | 2.8 ± 0.6 µM | 1.8 ± 0.25 µM | > 5 µM |  |  |  |  | Cc1cccc(C)c1C(=O)OCC(=O)CNC(=O)[C@@H]1CCCN1C(=O)CNC(=O)OCc1ccccc1 [GD16]
11 | 1 ± 0.13 µM | 0.8 ± 0.1 µM | 1.6 ± 0.22 µM |  |  |  |  | Cc1cccc(C)c1C(=O)OCC(=O)[C@H](CCCCN)NC(=O)[C@H](CC(C)C)NC(=O)CNC(=O)OCc1ccccc1 [GD12]
12 | 0.8 ± 0.25 µM | 0.3 ± 0.03 µM | > 5 µM |  |  |  |  | NCCCC[C@H](NC(=O)[C@@H]1CCCN1C(=O)CNC(=O)OCc1ccccc1)C(=O)COc1c(F)c(F)cc(F)c1F [GD14]
13 | 5 ± 0.1 µM | 0.9 ± 0.06 µM | > 5 µM |  |  |  |  | CC(C)C[C@H](N[C@@H](c1ccc(-c2ccc(CCNC(=O)OC(C)(C)C)cc2)cc1)C(F)(F)F)C(=O)NCC(=O)COC(=O)[C@@H]1CCCN1C(=O)[C@H](CC(C)C)NC(=O)OCC1c2ccccc2-c2ccccc21 [GD34]
14 | > 5 µM | 1.2 ± 0.11 µM | > 5 µM |  |  |  |  | O=C(CNC(=O)[C@@H]1CCCN1C(=O)CNC(=O)OCc1ccccc1)CSc1c(F)c(F)cc(F)c1F [GD17]
15 | > 5 µM | > 5 µM | 1.6 ± 0.5 µM |  |  |  |  | CC(C)C[C@H](NC(=O)OCC1c2ccccc2-c2ccccc21)C(=O)N1CCC[C@H]1C(=O)OCC(=O)CNC(=O)[C@H](CCCCNC(=O)OC(C)(C)C)N[C@@H](c1ccc(-c2ccc(S(C)(=O)=O)cc2)cc1)C(F)(F)F [GD29]
16 | 6 ± 1.5 µM | 1.4 ± 0.2 µM | > 5 µM |  |  |  |  | CC(C)C[C@H](N[C@@H](c1ccc(-c2ccc(NC(=O)OC(C)(C)C)cc2)cc1)C(F)(F)F)C(=O)NCC(=O)COC(=O)[C@@H]1CCCN1C(=O)[C@H](CC(C)C)NC(=O)OCC1c2ccccc2-c2ccccc21 [GD26]
17 |  | 3.5 ± 0.5 µM |  |  |  |  | 4–9 times | CC(C)C[C@H](N[C@H](c1ccc(-c2ccc(S(C)(=O)=O)cc2)cc1)C(F)(F)F)C(=O)NCC(=O)COC(=O)[C@@H]1CCCN1C(=O)[C@H](CC(C)C)NC(=O)OCC1c2ccccc2-c2ccccc21 [GD35]
18 | 1.7 ± 0.35 µM | 1.6 ± 0.35 µM | > 5 µM |  |  |  |  | Cc1cccc(C)c1C(=O)OCC(=O)CNC(=O)[C@H](CC(C)(C)F)N[C@@H](c1ccc(-c2ccc(NC(=O)OC(C)(C)C)cc2)cc1)C(F)(F)F [GD6]
19 | 2.2 ± 0.35 µM | 0.68 ± 0.08 µM | 3.6 ± 0.04 µM |  |  |  |  | CC(C)C[C@H](N[C@@H](c1ccc(-c2ccc(S(C)(=O)=O)cc2)cc1)C(F)(F)F)C(=O)NCC(=O)COc1c(F)c(F)cc(F)c1F [GD8]
20 | 3.6 ± 0.03 µM | 0.66 ± 0.01 µM | > 5 µM |  |  |  |  | Cc1cccc(C)c1C(=O)OCC(=O)CNC(=O)[C@H](CC(C)C)N[C@@H](c1ccc(-c2ccc(S(C)(=O)=O)cc2)cc1)C(F)(F)F [GD7]
21 | > 5 µM | 1 ± 0.07 µM | > 5 µM |  |  |  |  | CC(C)C[C@H](N[C@@H](c1ccc(-c2ccc(S(C)(=O)=O)cc2)cc1)C(F)(F)F)C(=O)NCC(=O)COC(=O)CNC(=O)OCC1c2ccccc2-c2ccccc21 [GD27]
22 |  | 3.5 ± 0.9 µM |  |  |  |  | 4–9 times | CC(C)C[C@H](NC(=O)OCC1c2ccccc2-c2ccccc21)C(=O)N1CCC[C@H]1C(=O)OCC(=O)CNC(=O)[C@@H](CC(C)C)N[C@H](c1ccc(-c2ccc(S(C)(=O)=O)cc2)cc1)C(F)(F)F [GD40]
